Experimental data reported in patent publication US11610666B2, “Systems and methods of managing treatment of a chronic condition by symptom tracking” (CORCEPT THERAPEUTICS, INC., priority 2014, dated 2023).

Conditions: human, in vivo
From the text: Treatment of endocrine disorders, such as Cushing's Syndrome, can be particularly difficult to manage due to less predictable patient response to administration of a synthetic steroid, such as mifepristone. Mifepristone is a synthetic steroid that binds progesterone and glucocorticoid receptors and has been employed to treat a number of conditions including meningioma, uterine fibroids, hyperadrenocorticism, metabolic, oncologic, opthamalogic, central nervous system disorders and certain psychiatric illnesses. Examples of such metabolic disorders include diabetes, obesity, antipsychotic induced weight gain, hypertension, and osteoporosis; examples of oncologic illness include various types of cancers, including ovarian cancer and prostate cancer; examples of central nervous system disorders include Alzheimer's Disease, neurodegenerative diseases, post traumatic stress disorder, and alcohol dependence; and examples of opthamalogical conditions include glaucoma and central serous retinopathy. […] For a particular dose of mifepristone, the plasma drug concentration can differ by as much as 800% from one patient to the next. The varied plasma drug concentration can result in some patients not receiving an efficacious dose of mifepristone. For these patients in particular, it is necessary to improve the pharmacokinetics of mifepristone upon administration. […]

Structure (SMILES): CC#C[C@]1(O)CC[C@H]2[C@@H]3CCC4=CC(=O)CCC4=C3[C@@H](c3ccc(N(C)C)cc3)C[C@@]21C [mifepristone]
- difference in plasma drug concentration from one patient to the next: ≤ 800%
